# Target: CIP2A(1-560) (Homo sapiens, UniProt Q8TCG1)
# Assay: microscale thermophoresis
# Format: binding
row,SMILES,Kd [µM]
1,CC(C)=CCC[C@]1(C)C=Cc2c(O)c3c(c(CC=C(C)C)c2O1)O[C@]12C(=C[C@@H]4C[C@H]1C(C)(C)O[C@@]2(C/C=C(/C)C(=O)N1CCOCC1)C4=O)C3=O [DAP-19],8.4
2,"CC(C)=CCC[C@]1(C)C=Cc2c(O)c3c(c(CC=C(C)C)c2O1)O[C@]12C(=C[C@@H]4C[C@H]1C(C)(C)O[C@@]2(C/C=C(/C)C(=O)O)C4=O)C3=O [GIA, Gambogic acid]",4.6
3,"CC(C)=CCC/C(C)=C/Cc1c(O)c(CC=C(C)C)c2c(c1O)C(=O)C1=C[C@@H]3C[C@H]4C(C)(C)O[C@@](C/C=C(/C)C(=O)NCCCCCNC(=O)CCCC[C@@H]5SC[C@@H]6NC(=O)N[C@@H]65)(C3=O)[C@@]14O2 [bGNA, biotinylated gambogenic acid]",4.2
